This is an account of results in article PMC3243944 (Biopolymers, 2011).

Series [1] has as its system 5-helix bundle (5HB) protein construct derived from the hRSV fusion (F) protein. To be noted: protein-based (5HB) FP screening assay; cited from earlier work.
Series [2] can be described thus: Solubility in aqueous buffer. Type of series: physicochemical.

Where no end group is shown, it is not given here.

As usually defined, the solubility is how much of the substance goes into solution per volume. A higher solubility goes with a readily soluble substance. For ISQVNEKINQSLAFIRKSDE [C20], the “Binding affinity to the 5HB” value in series [1] was “low micromolar”. Further, the solubility in series [2] is less than 2000 µg/mL.
